Measured values as given in PubChem BioAssay AID328 (DTP/NCI, 2004).
Where “and” joins values, the source holds several entries; their conditions need not be identical. Equal entries are not always repeated. Inconclusive results and toxic doses are left out.

Tested on: BDF1 mice, P388 leukemia ip, median survival T/C
Assay: NCI In Vivo Anticancer Drug Screen. Data for tumor model P388 Leukemia (intraperitoneal) in B6D2F1 (BDF1) mice
Conditions: endpoint: median survival time, higher = longer survival
In short: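 Vehicle-dosed animals serve as the reference; survival of compound-dosed, tumour-implanted mice is divided by it.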

[1] = dose: 100.0 mg/kg/injection, schedule: Q04DX003 (ip), vehicle: Klucel (hydroxypropylcellulose) (HPC)
[2] = dose: 200.0 mg/kg/injection, schedule: Q04DX003 (ip), vehicle: Klucel (hydroxypropylcellulose) (HPC)
[3] = dose: 50.0 mg/kg/injection, schedule: Q01DX009 (ip), vehicle: saline with Tween-80
[4] = dose: 100.0 mg/kg/injection, schedule: Q01DX009 (ip), vehicle: saline with Tween-80
[5] = dose: 200.0 mg/kg/injection, schedule: Q01DX009 (ip), vehicle: saline with Tween-80

## COc1ccc(C=Nc2cccc3ccccc23)cc1
dose: 100.0 mg/kg/injection, schedule: Q01DX001 (ip), vehicle: saline sonified
  T/C: 100 % of control
dose: 200.0 mg/kg/injection, schedule: Q01DX001 (ip), vehicle: saline sonified
  T/C: 100 % of control
dose: 400.0 mg/kg/injection, schedule: Q01DX001 (ip), vehicle: saline sonified
  T/C: 104 % of control

## CC(C(=O)c1cccs1)C(O)(C(F)(F)F)C(F)(F)F (centres undefined)
[1]
  T/C: 91 % of control
[2]
  T/C: 91 % of control

## CCOC(=O)/C(C#N)=C/C=C1C=CN(C)C=C1
[3]
  T/C: 86 % of control
[4]
  T/C: 105 % of control
[5]
  T/C: 116 % of control

## CCN(CC)c1ccc2c(C)cc(=O)oc2c1
dose: 6.25 mg/kg/injection, schedule: Q01DX009 (ip), vehicle: saline with Tween-80
  T/C: 100 % of control
dose: 12.5 mg/kg/injection, schedule: Q01DX009 (ip), vehicle: saline with Tween-80
  T/C: 94 % of control
dose: 25.0 mg/kg/injection, schedule: Q01DX009 (ip), vehicle: saline with Tween-80
  T/C: 94 % of control
[3]
  T/C: 94 % of control
[4]
  T/C: 92 % of control
[5]
  T/C: 94 % of control

## O=S(c1ccccc1)C1Cc2ccccc2C1Cl (centres undefined)
dose: 50.0 mg/kg/injection, schedule: Q01DX009 (ip), vehicle: other
  T/C: 107 % of control
dose: 100.0 mg/kg/injection, schedule: Q01DX009 (ip), vehicle: other
  T/C: 107 % of control
dose: 200.0 mg/kg/injection, schedule: Q01DX009 (ip), vehicle: other
  T/C: 115 % of control

## Cc1ccc(OC/C=C/CSc2ccc(C)cc2)cc1
[1]
  T/C: 108 % of control
[2]
  T/C: 108 % of control
dose: 400.0 mg/kg/injection, schedule: Q04DX003 (ip), vehicle: Klucel (hydroxypropylcellulose) (HPC)
  T/C: 108 % of control

## C=C1C(=O)CCC1/C=C\C (centres undefined)
dose: 50.0 mg/kg/injection, schedule: Q01DX005 (ip), vehicle: saline with Tween-80
  T/C: 97 % of control

## CN(C)/N=C1\C(=O)N(CCCl)c2cc(Cl)c(Cl)cc21
[3]
  T/C: 97 % of control
[4]
  T/C: 99 % of control
[5]
  T/C: 90 % of control

## CC(=O)Oc1ccc(OC(C)=O)c2c1C(=O)C=CC2=O
dose: 0.09 mg/kg/injection, schedule: Q01DX009 (ip), vehicle: Klucel (hydroxypropylcellulose) (HPC)
  T/C: 97 % of control
dose: 0.18 mg/kg/injection, schedule: Q01DX009 (ip), vehicle: Klucel (hydroxypropylcellulose) (HPC)
  T/C: 97 % of control
dose: 0.37 mg/kg/injection, schedule: Q01DX009 (ip), vehicle: Klucel (hydroxypropylcellulose) (HPC)
  T/C: 112 % of control
dose: 0.75 mg/kg/injection, schedule: Q01DX009 (ip), vehicle: Klucel (hydroxypropylcellulose) (HPC)
  T/C: 118 % of control
dose: 1.5 mg/kg/injection, schedule: Q01DX009 (ip), vehicle: Klucel (hydroxypropylcellulose) (HPC)
  T/C: 93 % of control and 98 % of control
dose: 3.0 mg/kg/injection, schedule: Q01DX009 (ip), vehicle: Klucel (hydroxypropylcellulose) (HPC)
  T/C: 95 % of control
dose: 6.25 mg/kg/injection, schedule: Q01DX009 (ip), vehicle: Klucel (hydroxypropylcellulose) (HPC)
  T/C: 91 % of control

## Cc1ccc(S(=O)(=O)OCCN(CCOS(=O)(=O)c2ccc(C)cc2)c2ccc(N=O)cc2)cc1
dose: 66.0 mg/kg/injection, schedule: Q04DX003 (ip), vehicle: saline sonified
  T/C: 195 % of control
dose: 100.0 mg/kg/injection, schedule: Q04DX003 (ip), vehicle: saline sonified
  T/C: 200 % of control
dose: 150.0 mg/kg/injection, schedule: Q04DX003 (ip), vehicle: saline sonified
  T/C: 216 % of control

## C1CCc2nnnn2CC1
dose: 2.34 mg/kg/injection, schedule: Q04DX003 (ip), vehicle: saline
  T/C: 91 % of control
dose: 4.68 mg/kg/injection, schedule: Q04DX003 (ip), vehicle: saline
  T/C: 91 % of control
dose: 9.37 mg/kg/injection, schedule: Q04DX003 (ip), vehicle: saline
  T/C: 91 % of control
dose: 12.5 mg/kg/injection, schedule: Q01DX009 (ip), vehicle: saline
  T/C: 118 % of control
dose: 18.75 mg/kg/injection, schedule: Q04DX003 (ip), vehicle: saline
  T/C: 100 % of control
dose: 25.0 mg/kg/injection, schedule: Q01DX009 (ip), vehicle: saline
  T/C: 118 % of control

## COc1cc2c[n+](C)c3c4cc5c(cc4ccc3c2cc1OC)OCO5 (tested in a mixture with another compound)
dose: 1.25 mg/kg/injection, schedule: Q01DX009 (ip), vehicle: water
  T/C: 124 % of control
dose: 10.0 mg/kg/injection, schedule: Q01DX009 (ip), vehicle: saline
  T/C: 163 % of control and 166 % of control
dose: 10.0 mg/kg/injection, schedule: Q01DX009 (ip), vehicle: water
  T/C: 160 % of control
dose: 20.0 mg/kg/injection, schedule: Q01DX009 (ip), vehicle: saline
  T/C: 172 % of control and 188 % of control and 203 % of control
dose: 20.0 mg/kg/injection, schedule: Q01DX009 (ip), vehicle: water
  T/C: 150 % of control
dose: 40.0 mg/kg/injection, schedule: Q01DX009 (ip), vehicle: saline
  T/C: 174 % of control and 215 % of control
dose: 40.0 mg/kg/injection, schedule: Q01DX009 (ip), vehicle: water
  T/C: 110 % of control
dose: 80.0 mg/kg/injection, schedule: Q01DX009 (ip), vehicle: saline
  T/C: 172 % of control and 188 % of control

## Clc1ccc2nnnn2n1
dose: 16.25 mg/kg/injection, schedule: Q01DX009 (ip), vehicle: saline with Tween-80
  T/C: 99 % of control
dose: 32.5 mg/kg/injection, schedule: Q01DX009 (ip), vehicle: saline with Tween-80
  T/C: 101 % of control
dose: 40.0 mg/kg/injection, schedule: Q01DX009 (ip), vehicle: saline with Tween-80
  T/C: 97 % of control
dose: 80.0 mg/kg/injection, schedule: Q01DX009 (ip), vehicle: saline with Tween-80
  T/C: 111 % of control
dose: 130.0 mg/kg/injection, schedule: Q01DX009 (ip), vehicle: saline with Tween-80
  T/C: 151 % of control

## C/C=C/C(OCC)OCC
dose: 6.25 mg/kg/injection, schedule: Q04DX003 (ip), vehicle: water
  T/C: 95 % of control
dose: 12.5 mg/kg/injection, schedule: Q01DX009 (ip), vehicle: water
  T/C: 105 % of control
dose: 12.5 mg/kg/injection, schedule: Q04DX003 (ip), vehicle: water
  T/C: 91 % of control
dose: 25.0 mg/kg/injection, schedule: Q01DX009 (ip), vehicle: water
  T/C: 91 % of control
dose: 25.0 mg/kg/injection, schedule: Q04DX003 (ip), vehicle: water
  T/C: 92 % of control
dose: 50.0 mg/kg/injection, schedule: Q01DX009 (ip), vehicle: water
  T/C: 100 % of control
dose: 50.0 mg/kg/injection, schedule: Q04DX003 (ip), vehicle: water
  T/C: 105 % of control
dose: 100.0 mg/kg/injection, schedule: Q01DX009 (ip), vehicle: water
  T/C: 98 % of control
dose: 100.0 mg/kg/injection, schedule: Q04DX003 (ip), vehicle: water
  T/C: 113 % of control
dose: 200.0 mg/kg/injection, schedule: Q01DX009 (ip), vehicle: water
  T/C: 109 % of control
dose: 200.0 mg/kg/injection, schedule: Q04DX003 (ip), vehicle: water
  T/C: 111 % of control and 113 % of control
dose: 300.0 mg/kg/injection, schedule: Q04DX003 (ip), vehicle: water
  T/C: 111 % of control

## O=C1N=C2C=CC=CN2CC1O (centres undefined)
dose: 100.0 mg/kg/injection, schedule: Q04DX003 (ip), vehicle: saline with Tween-80
  T/C: 104 % of control
dose: 200.0 mg/kg/injection, schedule: Q04DX003 (ip), vehicle: saline with Tween-80
  T/C: 112 % of control
dose: 400.0 mg/kg/injection, schedule: Q04DX003 (ip), vehicle: saline with Tween-80
  T/C: 100 % of control

## CC(=O)CC(C)=O.CC(=O)CC(C)=O.CC(=O)CC(C)=O.[Cr]
dose: 100.0 mg/kg/injection, schedule: Q04DX003 (ip), vehicle: saline
  T/C: 90 % of control
dose: 200.0 mg/kg/injection, schedule: Q04DX003 (ip), vehicle: saline
  T/C: 90 % of control
dose: 400.0 mg/kg/injection, schedule: Q04DX003 (ip), vehicle: saline
  T/C: 90 % of control

## O=C(O)COc1c(Br)cc(Br)cc1Br
dose: 50.0 mg/kg/injection, schedule: Q01DX009 (ip), vehicle: Klucel (hydroxypropylcellulose) (HPC)
  T/C: 90 % of control
dose: 100.0 mg/kg/injection, schedule: Q01DX009 (ip), vehicle: Klucel (hydroxypropylcellulose) (HPC)
  T/C: 90 % of control
dose: 200.0 mg/kg/injection, schedule: Q01DX009 (ip), vehicle: Klucel (hydroxypropylcellulose) (HPC)
  T/C: 110 % of control
